Drawing on patent publication US20250353855A1, “HETEROCYCLIC AND HETEROARYL COMPOUNDS FOR TREATING HUNTINGTON'S DISEASE” (PTC THERAPEUTICS, INC., priority 2022, published 2025), this text covers IC50 for 25 molecules.

As usually defined, the IC50 is the concentration that gives 50% inhibition.

Where only a bound is given, the exact number is not on record here.

One assay concerns Endogenous Huntingtin Protein. Put plainly: Endogenous Huntingtin Protein Assay (ELISA-based MSD electrochemiluminescence). In kind it is cell-based. As to conditions: MSD plates coated with MW1 (expanded polyglutamine) or MAB2166 capture antibody; lysates. As for the experimental part: Compounds of Formula (T) were tested using the Meso Scale Discovery (MSD) Assay provided in International Application No. PCT/US2016/066042, filed on Dec. 11, 2016 and claiming priority to U.S. Provisional Application 62/265,652 filed on Dec. 10, 2015, the entire contents of which are incorporated herein by reference.
The Endogenous Huntingtin Protein assay used in Example 1 was developed using the ELISA-based MSD electrochemiluminescence assay platform.
Meso Scale Discovery (MSD) 96-well or 384-well plates were coated overnight at 4° C. with MW1 (expanded polyglutamine) or MAB2166 monoclonal antibody (for capture) at a concentration of 1 μg/mL in PBS (30 μL per well). Plates were then washed three times with 300 μL wash buffer (0.05% Tween-20 in PBS) and blocked (100 μL blocking buffer; 5% BSA in PBS) for 4-5 hours at room temperature with rotational shaking and then washed three times with wash buffer.
Samples (25 μL) were transferred to the antibody-coated MSD plate and incubated overnight at 4° C. After removal of the lysates, the plate was washed three times with wash buffer, and 25 μL of #5656S (Cell signaling; rabbit monoclonal) secondary antibody (diluted to 0.25 μg/mL in 0.05% Tween-20 in blocking buffer) was added to each well and incubated with shaking for 1 Hour at room temperature. Following incubation with the secondary antibody, the wells were rinsed with wash buffer after which 25 μL of goat anti-rabbit SULFO TAG secondary detection antibody (required aspect of the MSD system) (diluted to 0.25 μg/mL in 0.05% Tween-20 in blocking buffer) was added to each well and incubated with shaking for 1 hour at room temperature. After rinsing three times with wash buffer, 150 μL of read buffer T with surfactant (MSD) were added to each empty well, and the plate was imaged on a SI 6000 imager (MSD) according to manufacturers' instructions provided for 96- or 384-well plates.
A general note: In an ELISA, binding on a coated surface is turned into a signal by an enzyme label.
The molecule `CSc1nc2cc(O)c(-c3cc4c(nn3)N([C@H]3CC(C)(C)NC(C)(C)[C@H]3F)CC4)cc2s1` [Cpd 98, 6-{7-[(3S,4S)-3-fluoro-2,2,6,6-tetramethylpiperidin-4-yl]-6,7-dihydro-5H-pyrrolo[2,3-c]pyridazin-3-yl}-2-(methylsulfanyl)-1,3-benzothiazol-5-ol] showed a half-inhibitory concentration (IC50) of less than 0.1 µM.

The assay is the same for the next values; noted with them: MSD plates coated with MW1 (expanded polyglutamine) or MAB2166 capture antibody; lysates; read-out: IC50.
In the case of `CC1(C)C[C@H](N2CCc3cc(-c4cc5ccc(=O)oc5cc4O)nnc32)[C@H](F)C(C)(C)N1` [Cpd 67, 6-{7-[(3S,4S)-3-fluoro-2,2,6,6-tetramethylpiperidin-4-yl]-6,7-dihydro-5H-pyrrolo[2,3-c]pyridazin-3-yl}-7-hydroxy-2H-1-benzopyran-2-one], the IC50 was less than 0.1 µM. Still for that read-out and setting: the figure for `Cc1nc2cc(O)c(-c3cc4c(nn3)N(C3CC5(CC5)NC5(CC5)C3)CC4)cc2s1` (stereo not shown) [Cpd 71, 6-[7-(4-azadispiro[2.1.25.33]decan-9-yl)-6,7-dihydro-5H-pyrrolo[2,3-c]pyridazin-3-yl]-2-methyl-1,3-benzothiazol-5-ol] is less than 0.1 µM. The same measure, in the same setting: the figure for `Cc1nc2cc(-c3cc4ccn([C@H]5CC(C)(C)NC(C)(C)[C@H]5F)c4nn3)c(O)cc2o1` [Cpd 6, 5-{7-[(3S,4S)-3-fluoro-2,2,6,6-tetramethylpiperidin-4-yl]-7H-pyrrolo[2,3-c]pyridazin-3-yl}-2-methyl-1,3-benzoxazol-6-ol] is less than 0.1 µM; for `Cc1cc(=O)oc2cc(O)c(-c3cc4c(nn3)N([C@H]3CC(C)(C)NC(C)(C)[C@H]3F)CC4)cc12` [Cpd 65, 6-{7-[(3S,4S)-3-fluoro-2,2,6,6-tetramethylpiperidin-4-yl]-6,7-dihydro-5H-pyrrolo[2,3-c]pyridazin-3-yl}-7-hydroxy-4-methyl-2H-1-benzopyran-2-one] it is less than 0.1 µM.

Take `CC1(C)C[C@H](n2ccc3cc(-c4cc5cccnc5cc4O)nnc32)[C@H](F)C(C)(C)N1` [Cpd 16, 6-{7-[(3S,4S)-3-fluoro-2,2,6,6-tetramethylpiperidin-4-yl]-7H-pyrrolo[2,3-c]pyridazin-3-yl}quinolin-7-ol]: the IC50 is less than 0.1 µM. As for `CC1(C)C[C@H](N2CCc3cc(-c4cc5ncc(F)cc5cc4O)nnc32)[C@H](F)C(C)(C)N1` [Cpd 90, 3-fluoro-7-{7-[(3S,4S)-3-fluoro-2,2,6,6-tetramethylpiperidin-4-yl]-6,7-dihydro-5H-pyrrolo[2,3-c]pyridazin-3-yl}quinolin-6-ol], the IC50 was less than 0.1 µM. In the case of `Cc1nc2cc(O)c(-c3cc4ccn([C@H]5C[C@@H]6CC[C@@H](N6)[C@H]5F)c4nn3)cc2s1` (single isomer, unassigned) [Cpd 10, 6-{7-[(1R,2R,3S,5S)-2-fluoro-8-azabicyclo[3.2.1]octan-3-yl]-7H-pyrrolo[2,3-c]pyridazin-3-yl}-2-methyl-1,3-benzothiazol-5-ol or 6-{7-[(1S,2S,3R,5R)-2-fluoro-8-azabicyclo[3.2.1]octan-3-yl]-7H-pyrrolo[2,3-c]pyridazin-3-yl}-2-methyl-1,3-benzothiazol-5-ol], the IC50 is less than 0.1 µM. On the same count and under the same terms, the figure for `COc1nc2cc(O)c(-c3cc4ccn([C@H]5CC(C)(C)NC(C)(C)[C@H]5F)c4nn3)cc2s1` [Cpd 96, 6-{7-[(3S,4S)-3-fluoro-2,2,6,6-tetramethylpiperidin-4-yl]-7H-pyrrolo[2,3-c]pyridazin-3-yl}-2-methoxy-1,3-benzothiazol-5-ol] is less than 0.1 µM; for `Cc1cc2cc(-c3cc4c(nn3)N([C@H]3CC(C)(C)NC(C)(C)[C@H]3F)CC4)c(O)cc2oc1=O` [Cpd 73, 6-{7-[(3S,4S)-3-fluoro-2,2,6,6-tetramethylpiperidin-4-yl]-6,7-dihydro-5H-pyrrolo[2,3-c]pyridazin-3-yl}-7-hydroxy-3-methyl-2H-1-benzopyran-2-one] it is less than 0.1 µM. The same measure, in the same setting: the figure for `CC1(C)C[C@H](N2CCc3cc(-c4cc5cc(F)cnc5cc4O)nnc32)[C@H](F)C(C)(C)N1` [Cpd 93, 3-fluoro-6-{7-[(3S,4S)-3-fluoro-2,2,6,6-tetramethylpiperidin-4-yl]-6,7-dihydro-5H-pyrrolo[2,3-c]pyridazin-3-yl}quinolin-7-ol] is less than 0.1 µM; for `CC1(C)C[C@H](n2ccc3cc(-c4cc5c(Cl)ccnc5cc4O)nnc32)[C@H](F)C(C)(C)N1` [Cpd 21, 4-chloro-6-{7-[(3S,4S)-3-fluoro-2,2,6,6-tetramethylpiperidin-4-yl]-7H-pyrrolo[2,3-c]pyridazin-3-yl}quinolin-7-ol] it is 0.1 to 0.5 µM. On the same count and under the same terms, the figure for `Cc1nc2cc(O)c(-c3cc4c(nn3)N([C@H]3CC(C)(C)NC(C)(C)[C@H]3F)CC4)cc2o1` [Cpd 44, 6-{7-[(3S,4S)-3-fluoro-2,2,6,6-tetramethylpiperidin-4-yl]-6,7-dihydro-5H-pyrrolo[2,3-c]pyridazin-3-yl}-2-methyl-1,3-benzoxazol-5-ol] is less than 0.1 µM; for `COc1nc2cc(O)c(-c3cc4c(nn3)N([C@H]3CC(C)(C)NC(C)(C)[C@H]3F)CC4)cc2s1` [Cpd 97, 6-{7-[(3S,4S)-3-fluoro-2,2,6,6-tetramethylpiperidin-4-yl]-6,7-dihydro-5H-pyrrolo[2,3-c]pyridazin-3-yl}-2-methoxy-1,3-benzothiazol-5-ol] it is less than 0.1 µM. Take `Cc1ccc2cc(O)c(-c3cc4c(nn3)N([C@H]3CC(C)(C)NC(C)(C)[C@H]3F)CC4)cc2n1` [Cpd 77, 7-{7-[(3S,4S)-3-fluoro-2,2,6,6-tetramethylpiperidin-4-yl]-6,7-dihydro-5H-pyrrolo[2,3-c]pyridazin-3-yl}-2-methylquinolin-6-ol]: the IC50 is less than 0.1 µM. On to `CC1(C)C[C@H](N2CCc3cc(-c4cc5oc(=O)[nH]c5cc4O)nnc32)[C@H](F)C(C)(C)N1` [Cpd 86, 6-{7-[(3S,4S)-3-fluoro-2,2,6,6-tetramethylpiperidin-4-yl]-6,7-dihydro-5H-pyrrolo[2,3-c]pyridazin-3-yl}-5-hydroxy-1,3-benzoxazol-2(3H)-one], for which the IC50 was less than 0.1 µM.

`Cc1nc2cc(O)c(-c3cc4c(nn3)N([C@H]3CC(C)(C)NC(C)(C)[C@H]3F)CC4)cc2nc1C` [Cpd 51, 7-{7-[(3S,4S)-3-fluoro-2,2,6,6-tetramethylpiperidin-4-yl]-6,7-dihydro-5H-pyrrolo[2,3-c]pyridazin-3-yl}-2,3-dimethylquinoxalin-6-ol]: the IC50 was less than 0.1 µM.

Regarding `CC1(C)C[C@H](N2CCc3cc(-c4cc5nn[nH]c5cc4O)nnc32)[C@H](F)C(C)(C)N1` [Cpd 47, 5-{7-[(3S,4S)-3-fluoro-2,2,6,6-tetramethylpiperidin-4-yl]-6,7-dihydro-5H-pyrrolo[2,3-c]pyridazin-3-yl}-1H-benzotriazol-6-ol], the IC50 is less than 0.1 µM.

Consider `CC1(C)CC(n2nnc3cc(-c4cc5c(cc4O)C(=O)CC5)nnc32)CC(C)(C)N1` [Cpd 1, 6-hydroxy-5-[3-(2,2,6,6-tetramethylpiperidin-4-yl)-3H-[1,2,3]triazolo[4,5-c]pyridazin-6-yl]-2,3-dihydro-1H-inden-1-one], for which the IC50 fell in the range of 1 to 3 µM. The same measure, in the same setting: the figure for `CSc1nc2cc(O)c(-c3cc4ccn([C@H]5CC(C)(C)NC(C)(C)[C@H]5F)c4nn3)cc2s1` [Cpd 99, 6-{7-[(3S,4S)-3-fluoro-2,2,6,6-tetramethylpiperidin-4-yl]-7H-pyrrolo[2,3-c]pyridazin-3-yl}-2-(methylsulfanyl)-1,3-benzothiazol-5-ol] is less than 0.1 µM; for `Cn1cc2cc(-c3cc4ccn([C@H]5CC(C)(C)NC(C)(C)[C@H]5F)c4nn3)c(O)c(F)c2n1` [Cpd 100, 7-fluoro-5-{7-[(3S,4S)-3-fluoro-2,2,6,6-tetramethylpiperidin-4-yl]-7H-pyrrolo[2,3-c]pyridazin-3-yl}-2-methyl-2H-indazol-6-ol] it is less than 0.1 µM; for `Cc1cnc2cc(O)c(-c3cc4c(nn3)N([C@H]3CC(C)(C)NC(C)(C)[C@H]3F)CC4)cc2c1` [Cpd 81, 6-{7-[(3S,4S)-3-fluoro-2,2,6,6-tetramethylpiperidin-4-yl]-6,7-dihydro-5H-pyrrolo[2,3-c]pyridazin-3-yl}-3-methylquinolin-7-ol] it is less than 0.1 µM. Same read-out and setting: the figure for `Cc1nc2cc(-c3cc4c(nn3)N([C@H]3CC(C)(C)NC(C)(C)[C@H]3F)CC4)c(O)cc2[nH]1` [Cpd 46, 5-{7-[(3S,4S)-3-fluoro-2,2,6,6-tetramethylpiperidin-4-yl]-6,7-dihydro-5H-pyrrolo[2,3-c]pyridazin-3-yl}-2-methyl-1H-benzimidazol-6-ol] is less than 0.1 µM. `Cn1cc2cc(O)c(-c3cc4ccn([C@H]5CC(C)(C)NC(C)(C)[C@H]5F)c4nn3)cc2n1` [Cpd 38, 6-{7-[(3S,4S)-3-fluoro-2,2,6,6-tetramethylpiperidin-4-yl]-7H-pyrrolo[2,3-c]pyridazin-3-yl}-2-methyl-2H-indazol-5-ol]: the IC50 was less than 0.1 µM. The same measure, in the same setting: the figure for `Cc1cnc2cc(-c3cc4ccn([C@H]5CC(C)(C)NC(C)(C)[C@H]5F)c4nn3)c(O)cc2c1` [Cpd 30, 7-{7-[(3S,4S)-3-fluoro-2,2,6,6-tetramethylpiperidin-4-yl]-7H-pyrrolo[2,3-c]pyridazin-3-yl}-3-methylquinolin-6-ol] is less than 0.1 µM.
